# Data taken from patent US20230257429A1, “PEPTIDE ADJUVANT FOR ITS THERAPEUTIC APPLICATIONS IN VIRAL AND TUMOUR VACCINE DEVELOPMENT AND CANCER IMMUNOTHERAPY AND AUTOIMMUNE DISEASE DIAGNOSIS AND TREATMENTS” (National University of Singapore, priority 2020, published 2023).
# “Also recorded” adds a separate entry of the source. Ends that are not written are not given here.
# B1: NCL-P5 peptide, N-terminal biotin (peptide)
# peptide: RGGRGGFGGRG
# modifications: not fully specified (N-terminus)
# notes: Synthetic peptide
# B2: NCL-P4 peptide, N-terminal biotin (peptide)
# peptide: RGGFGGRGGG
# modifications: not fully specified (N-terminus)
# notes: Synthetic peptide; also called NCL-4
# B3: IPA1E2-P2+G: P2+G synthesized in fusion with the 30-AA peptide antigen IPA1E2 (peptide)
# chain: GQGQLVKRPKIMRFISHLWLALESANSEKRGGFGGRGGGRGGRGGFGGRGGRGGFGGRGGFRGGRGG
# modifications: IPA1E2-P2+G
# notes: P2+G synthesized in fusion with the 30-AA peptide antigen IPA1E2
# B4: NCL-P1 peptide (32 residues), N-terminal biotin (peptide)
# peptide: GGFGGRGGGRGGFGGRGGGRGGRGGFGGRGRG
# modifications: not fully specified (N-terminus)
# notes: Synthetic peptide
# B5: NCL-P3 control peptide (C-terminal 12 residues of NCL), N-terminal biotin (peptide)
# peptide: DHKPQGKKTKFE
# modifications: not fully specified (N-terminus)
# notes: Synthetic peptide
# Experiments:
# MyD88 = molecular target: T1, MyD88 (Homo sapiens, UniProt Q99836); experiment: MyD88 inhibitor pre-treatment before stimulation, cytokine ELISA; assay type: cell-based; settings: monocytes, st-2825 30 μM, 1 hr pre-incubation
# T1 construct: endogenous in cells; host or cells: PBMC / monocytes from blood donors
# Description: In some experiments, cells were pre-treated with the MyD88 inhibitor st-2825 (MedChemExpress) or the Caspase-1 inhibitor Ac-YVAD (InvivoGen) for 1 hr before stimulation with TLR ligands or the purified nuclear proteins. In some other experiments, cells were pre-incubated for 1 hr with anti-TLR2, TLR4 and TLR5 antibodies (InvivoGen) before stimulation. The optimal st-2825 and Ac-YVAD concentrations were determined based on both their effects on cell viability and LPS-induced cytokine production. Cell viability was determined using the CELLTITER 96® AQueous One Solution Cell Proliferation (MTS) Assay (Promega).
# We then examined whether NCL still induces cytokines when MyD88 is inhibited [Kawai, T. and Akira, S., Semin Immunol 19: 24-32 (2007)]. A MyD88 inhibitor st-2825 was used in this experiment (FIG. 3A). Its optimal concentration was, after titration of its cytotoxicity and its inhibition of LPS-induced cytokine production, determined to be 30 μM (FIG. 5). […] The inhibition of TNFα production by Ac-YVAD could be explained by its blocking autocrine monocytes activation through the IL-1β these cells produce (FIG. 4).
# monocytes = experiment: Monocyte activation, TNFα and IL-1β ELISA; assay type: cell-based, human; settings: for TNFα induction from monocytes (7 NCL peptides): peptides 50 or 200 μg/ml
# Description: Buffy coat fractions were obtained from healthy blood donors at the Singapore Health Sciences Authority, with Institutional ethics approval, and PBMC were isolated using Ficoll-Paque (GE Healthcare). To isolate monocytes, PBMC were re-suspended to 1×10^7 cells/ml in the RPMI medium contained 5% (v/v) BCS and incubated for 1 hr in T75 flasks (20 ml/flask). Monocytes that adhered were harvested. To culture macrophages and DC [Cao, W., et al., Blood 107: 2777-2785, (2006), incorporated herein by reference], monocytes were resuspended to 1×10^6 cells/ml and cultured in 6-well plates (2 ml/well). Macrophages were cultured by adding M-CSF to 20 ng/ml and DC were cultured with 20 ng/ml GM-CSF and 40 ng/ml IL-4. M-CSF, GM-CSF and IL-4 were obtained from R&D Systems (Mineapolis, Minn.). Cells were cultured for 6 days with half of the media being replenished every two days.
# […] Where TLR ligands were used to stimulate these cells, they were added to the media: LPS (500 ng/ml for DC and macrophages and 10 ng/ml for PMBC and monocytes, InvivoGen), flagellin (1 μg/ml, InvivoGen), lipoteichic acid (LTA, 10 μg/ml). Cell activation was determined by measuring TNFα and IL-1β in the culture media using ELISA kits (Invitrogen).
# PBMC [1] = experiment: Peptide binding to and penetration of PBMC, flow cytometry; assay type: cell-based, human; settings: 1 hr at 4° C., fixed/permeabilized, streptavidin-AF488
# Description: PBMC re-suspended in 100 μl macrophage serum free media (3×10^6/ml) were incubated with different peptides (200 μg/ml). PBMC (100 μl) were incubated with the peptides for 1 hr at 37° C. or 4° C. Cells were washed twice in 2% FBS/PBS and incubated with streptavidin-AF488 and Zombie (NIR) Fixable viability stain-APC-Cy7 for 30 min at 4° C. Cells were then fixed with 1% PFA for 30 min at room temperature and analysed using the Fortessa analyser (BD). In some experiments, PBMC were, after incubation with peptides, incubated with Zombie (NIR) Fixable viability stain (APC-Cy7) for 30 min at 4° C. Cells were then fixed and permeabilized with BD CYTOFIX/CYTOPERM™ Kit for 20 min at 4° C., and then incubated with streptavidin-AF488 for 30 min at 4° C. In some experiments, PBMC were, after incubation with the peptides, stained with fluorescent mouse antibodies specific for monocytes (CD14/BV711), T cells (CD3/PerCP-Cy5-5) and B cells (CD19/Pacific blue). Cells were then stained with Zombie (NIR) Fixable viability stain-APC-Cy7 and streptavin-AF488, with or without membrane permeabilization. In these experiments, monocytes, T cells and B cells were separately gated to detect surface peptide binding and intracellular peptide penetration.
# TLR2 [2] = molecular target: T2, TLR2 (Homo sapiens, UniProt O60603); experiment: TLR2 binding assay (ELISA plate); set-up: purchased R&D Systems; settings: for peptide binding to coated TLR2: biotin peptides at increasing concentrations
# TLR2 [3] = molecular target: T2, TLR2; experiment: TLR and NF-κB-luciferase assay in 293T cells, TLR2/TLR1/TLR6/TLR10; assay type: cell-based; set-up: expressed in transfected cells; host or cells: human embryonic kidney 293T cells; settings: peptides 200 μg/ml, 24 hr
# Description: TLR-mediated NF-κB activation was determined using a Dual Luciferase Reporter Assay (Promega), in which two luciferase reporter plasmids were used. […] Transfection was performed using the TurboFect Transfection Reagent (Thermo Fisher Scientific). After 24 hr, cells were harvested and cultured for 24 hr in 96-well plates coated with the purified proteins or, as controls, cultured in blank plates but stimulated with TLR ligands. Cells were lysed to measure both firefly and Renilla luciferase activities and, in each sample, the firefly activity was normalized to the Renilla luciferase activity and expressed as relative NF-κB activation.
# TLRs and, where it required, co-receptors were co-transfected in a total of 4 combinations, i.e. TLR2/1/6/10, TLR4/CD14/MD2, TLR5, or TLR3/7/8/9. Two luciferase expression vectors were used: one expresses the firefly luciferase under 5 repeats of the NF-κB gene promoter and the other expresses the Renilla luciferase under the constitutively active CMV promoter (FIG. 3A).
# PBMC [4] = experiment: PBMC activation, TNFα and IL-1β ELISA; assay type: cell-based, human; set-up: PBMC activation (TNFα) by FBRL peptides: dose or concentration left out as unconfirmed; settings: peptides added to 50 or 160, 24 hr
# [5] = molecular target: T3, Recombinant human TLR2-10×His (R&D Systems) (human, UniProt O60603 21-590); experiment: ELISA: biotin peptide on coated TLR2
# T3 construct: Bought protein; also called His-tagged TLR2
# [6] = test system: autologous CD4 and CD8 T cells; experiment: Antigen-loaded DC co-culture with autologous lymphocytes, proliferation; assay type: cell-based, human; settings: DC:T 1:5, 2 weeks co-culture, CellTrace Violet
# Description: PBMC were isolated from healthy blood donors from which monocytes were isolated to culture DC and the remaining cells (mostly lymphocytes) were stored frozen as a source of autologous lymphocytes. DC were then incubated for 24 hr with P2+G, IPA1E2 or the IPA1E2-P2+G fusion polypeptide (SEQ ID NO: 58) in round bottom 96-well plates (5×10^4 cells/well) without adding additional adjuvants. The frozen lymphocytes were revived and labelled with CellTrace Violet (2.5 μM) for 10 min at 37° C. and then added to the DC wells at 2.5×10^5 cells/well (DC:T ratio=1:5). After 2 weeks of co-culture, the proliferation of CD4+ and CD8+ T cell and CD19+ B cell was analyzed by flow cytometry.
# T3 sequence (O60603 other isoform, or with tags, fused parts or gaps limits assumed): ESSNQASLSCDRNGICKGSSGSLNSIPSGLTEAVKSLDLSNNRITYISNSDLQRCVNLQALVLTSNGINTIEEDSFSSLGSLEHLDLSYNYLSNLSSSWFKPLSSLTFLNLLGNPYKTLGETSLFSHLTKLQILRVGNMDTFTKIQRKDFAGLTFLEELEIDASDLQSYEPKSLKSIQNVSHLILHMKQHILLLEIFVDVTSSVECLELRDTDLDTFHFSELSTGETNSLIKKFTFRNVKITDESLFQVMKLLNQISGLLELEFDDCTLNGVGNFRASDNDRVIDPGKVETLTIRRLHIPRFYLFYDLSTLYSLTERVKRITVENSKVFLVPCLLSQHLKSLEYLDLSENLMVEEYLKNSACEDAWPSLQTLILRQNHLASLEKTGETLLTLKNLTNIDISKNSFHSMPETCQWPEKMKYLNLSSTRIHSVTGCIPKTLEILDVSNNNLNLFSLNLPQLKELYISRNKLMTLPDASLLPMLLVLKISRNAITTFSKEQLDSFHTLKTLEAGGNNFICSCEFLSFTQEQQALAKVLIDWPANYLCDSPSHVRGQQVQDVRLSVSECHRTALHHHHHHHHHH
# T1 sequence (Q99836 whole entry): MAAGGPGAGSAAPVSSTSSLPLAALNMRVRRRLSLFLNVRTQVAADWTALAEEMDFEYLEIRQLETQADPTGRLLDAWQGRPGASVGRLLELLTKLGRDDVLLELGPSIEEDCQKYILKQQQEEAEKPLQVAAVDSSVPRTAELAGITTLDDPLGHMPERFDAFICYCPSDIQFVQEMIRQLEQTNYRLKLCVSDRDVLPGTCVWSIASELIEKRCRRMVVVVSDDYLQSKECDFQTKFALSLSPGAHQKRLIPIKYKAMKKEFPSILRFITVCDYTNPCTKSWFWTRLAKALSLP
molecule,measurement,setting,value
NC(=O)[C@H]1CCS[C@@H]2C[C@]3(CCCN3C(=O)Cc3ccc(NC(=O)COc4ccc(Cl)cc4Cl)cc3)C(=O)N12 [st-2825],inhibition of HMGB1 and LPS induction of TNFα and IL-1β,MyD88,also inhibited
same,inhibition of NCL induction of TNFα and IL-1β,MyD88,partially but significantly inhibited
GGFGGRGGGRGGFGGRGGGRGGRGGFGGRGRG (NCL-P1),"cytokine induction, soluble versus coated (immobilized) form","monocytes; monocytes, 24 hr",induced more cytokines than immobilized peptides
same,TNFα induction from monocytes (7 NCL peptides),monocytes; 24 hr,induced TNFα
same,TNFα induction from monocytes at lower concentrations,monocytes; soluble peptide 10 and 20 μg/ml,induced little TNFα
same,TNFα induction from monocytes at higher concentrations,monocytes; soluble peptide 80 and 160 μg/ml,strongly induced TNFα production
same,intracellular pool / cell penetration (CPP activity) in PBMC,PBMC [1],accumulate intracellular pools
same,peptide binding to coated TLR2,TLR2 [2]; TLR2 coated 2 μg/ml,dose-dependent and saturable binding to TLR2
NCL(698)-HA: NCL-HA mutant in which 12 amino acids were deleted from the C-terminal end,TNFα and IL-1β production from monocytes,"monocytes; protein coated on plates, 24 hr, ELISA",continued to stimulate monocytes
same,TLR2 binding to coated NCL-HA mutants (summary experiment),"TLR2 [2]; protein coated 10 μg/ml, TLR2 2 μg/ml",bound
NCL-P3: control peptide covering the C-terminal 12 residues of NCL outside the GAR/RGG domain (DHKPQGKKTKFE; NCL-P3),"TNFα induction from monocytes, all concentrations","monocytes; soluble peptide 10 to 160 μg/ml, 24 hr",no TNFα induction
same,intracellular pool / cell penetration (CPP activity) in PBMC,PBMC [1],no intracellular pool; also recorded: not a 12-AA non-GAR/RGG peptide
same,peptide binding to coated TLR2,TLR2 [2]; TLR2 coated 2 μg/ml,no detectable binding; also recorded: lacked TLR2 binding
same,TLR2-mediated NF-κB activation by peptides,TLR2 [3],not observed
RGGFGGGRGRGGGFRGRGRGG (FBRL-P2),PBMC activation (TNFα) by FBRL peptides,PBMC [4],activated PBMC
RGGFGGRGGGRGGRGGFGGRG (NCL-P6),TNFα induction from monocytes (7 NCL peptides),monocytes; 24 hr,induced TNFα; also recorded: minor adjuvant activity
same,intracellular pool / cell penetration (CPP activity) in PBMC,PBMC [1],all lacked cell penetration; also recorded: diminished CPP activities
same,concentration at which saturated TLR2 binding was reached,TLR2 [2]; TLR2 coated 2 μg/ml,80 µg/mL
same,peptide binding to coated TLR2,TLR2 [2]; TLR2 coated 2 μg/ml,largely replicated NCL-P2 in TLR2 binding
RGGGFGGRGGFGDRGGRGGRGG (FBRL-P1),PBMC activation (TNFα) by FBRL peptides,PBMC [4],activated PBMC
B1,binding result,[5],binds
B2,binding result,[5],no binding (tested: 200 µg/ml)
B3,T cell proliferation / activation induced by peptide-loaded DC,[6],significantly increased T cell proliferation
B4,binding result,[5],binds
B5,binding result,[5],"no binding (tested: 0.64 to 1,000 ng/ml)"
